Measurements taken from PubChem BioAssay AID2060497 (Molecular Pharmacology Branch, DTP, NCI, 2025).
pIC50: −log10 of the molar value.

Test system: 317291-083-R-J1-PDC complex spheroids, viability
Test: Anticancer human tumor 317291-083-R-J1-PDC patient-derived soft tissue sarcoma cell line growth inhibition [GQUAD]
Conditions: for pIC50: curve of first compound; for viability, T/C: stronger effect = lower value
Text: DNA G-quadruplex Stabilizer Agents in Combinations in Complex Spheroids
A high-throughput screen of multi-cell type tumor spheroids was designed to identify active combinations of DNA G-quadruplex stabilizer agents and targeted small molecules. Complex spheroids include a stromal component modeled by human endothelial cells (HUVEC) and fibroblasts modeled by human mesenchymal stem cells (MSCs). The concentration ranges selected for each drug and investigational agent were based upon clinically achievable concentrations if the clinical Cmax of the agent was known.
Compounds. The drugs and investigational agents: pidnarulex (CX-5461; NSC782164), APTO-253 (NSC789042), BRACO-19 (NSC847499), peposertib (NSC802822), ceralasertib (NSC780249), elimusertib (NSC800525), camonsertib (NSC841442), AZD-1390 (NSC803789), olaparib (NSC753686), talazoparib (NSC767125), ART-558 (NSC835418), sotorasib (NSC818433), MRTX-1133 (NSC836407), SN-38 (NSC673596), topotecan (NSC609699), etoposide (NSC141540), doxorubicin (NSC123127), gemcitabine (NSC613327), 5-fluorouracil (NSC19893), paclitaxel (NSC125973), vemurafenib (NSC761431), panobinostat (NSC761190), R-306465 (JNJ-16241199; NSC773264), adavosertib (NSC754352), TP-3654 (NSC805149), carboplatin (NSC241240), KSQ-4279 (NSC840948), and staurosporine (NSC755774) were obtained from the National Cancer Institute (NCI) Developmental Therapeutics Program Chemical Repository (34). The FDA-approved anticancer drug set is available from the NCI Developmental Therapeutics Program. […] The stock solutions were prepared in dimethyl sulfoxide (DMSO, Sigma-Aldrich, St. Louis, MO, cat. D2650) at 800-fold the tested concentration and stored at -70 degrees C prior to their use. All drugs and investigational agents were tested over a range starting from a high concentration at or near the clinical Cmax and decreasing in half-log increments. If the clinical Cmax for an agent had not been determined, the highest concentration tested was 10 microM.
2.3 Cell Culture. All cells were maintained in an incubator at 37 degrees C and 5% CO2 with 95% humidity. The PDC lines were cultured according to standard operating procedures established by the NCI PDMR. All PDCs were thawed and cultured in Matrigel-coated flasks prepared with a working solution of 1X Ham's F-12 nutrient mix, without supplementation (Invitrogen, cat. 11765054), 100 U/mL penicillin-streptomycin (Invitrogen, cat. 15140122), and 2.5% Matrigel (Corning Inc., cat. 354248) for the first three passages. The 857933-349-R-J2-PDC line was cultured in 6C/Colon 1B media, which includes advanced DMEM/F-12 (Thermo Fisher Scientific, cat. 12634028), 10 mM HEPES (Thermo Fisher Scientific, cat. 15630080), 1X GlutaMAX supplement (Thermo Fisher Scientific, cat. 35050061), 0.1 mg/mL primocin (InvivoGen, cat. ant-pm-2), 10% defined fetal bovine serum, heat inactivated (HyClone Laboratories Inc., cat. SH30070.03HI), 50% L-WRN conditioned media (ATCC, cat. CRL-3276), 1.25 mM N-Acetyl-L-cysteine (Sigma-Aldrich, cat. A9165), 10 mM nicotinamide (Sigma-Aldrich, cat. N0636), 1X B-27 supplement (Thermo Fisher Scientific, cat. 17504044), 1X N-2 supplement (Thermo Fisher Scientific, cat. 17502048), 10 microM Y-27632 dihydrochloride (Tocris Bioscience, cat. 1254), and 50 ng/mL human EGF recombinant protein (Thermo Fisher Scientific, cat. PHG0311). The 485176-168-R4-J1-PDC line was cultured in Panc media, which includes all 6C/Colon 1B media components plus 100 ng/mL human FGF-10 (Thermo Fisher Scientific, cat. 100-26), 500 nM SB-431542 (Selleckchem, cat. S1067), and gastrin (Tocris, cat. 3006).
[…]

[1] = second compound 0.0316 µM, first compound 0.0316 µM
[2] = second compound 0.0316 µM, first compound 0.1 µM
[3] = second compound 0.0316 µM, first compound 0.316 µM
[4] = second compound 0.0316 µM, first compound 1 µM
[5] = second compound 0.0316 µM, first compound 3.16 µM
[6] = second compound 0.0316 µM, first compound 10 µM
[7] = second compound 0.1 µM, first compound 0.0316 µM
[8] = second compound 0.1 µM, first compound 0.1 µM
[9] = second compound 0.1 µM, first compound 0.316 µM
[10] = second compound 0.1 µM, first compound 1 µM
[11] = second compound 0.1 µM, first compound 3.16 µM
[12] = second compound 0.1 µM, first compound 10 µM
[13] = second compound 0.316 µM, first compound 0.0316 µM
[14] = second compound 0.316 µM, first compound 0.1 µM
[15] = second compound 0.316 µM, first compound 0.316 µM
[16] = second compound 0.316 µM, first compound 1 µM
[17] = second compound 0.316 µM, first compound 3.16 µM
[18] = second compound 0.316 µM, first compound 10 µM
[19] = second compound 1 µM, first compound 0.0316 µM
[20] = second compound 1 µM, first compound 0.1 µM
[21] = second compound 1 µM, first compound 0.316 µM
[22] = second compound 1 µM, first compound 1 µM
[23] = second compound 1 µM, first compound 3.16 µM
[24] = second compound 1 µM, first compound 10 µM
[25] = second compound 3.16 µM, first compound 0.0316 µM
[26] = second compound 3.16 µM, first compound 0.1 µM
[27] = second compound 3.16 µM, first compound 0.316 µM
[28] = second compound 3.16 µM, first compound 1 µM
[29] = second compound 3.16 µM, first compound 3.16 µM
[30] = second compound 3.16 µM, first compound 10 µM
[31] = second compound 10 µM, first compound 0.0316 µM
[32] = second compound 10 µM, first compound 0.1 µM
[33] = second compound 10 µM, first compound 0.316 µM
[34] = second compound 10 µM, first compound 1 µM
[35] = second compound 10 µM, first compound 3.16 µM
[36] = second compound 10 µM, first compound 10 µM
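Also: spheroids exposed to compounds for one week before readout.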
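For viability, T/C in this document: percent viability relative to DMSO vehicle wells taken as 100%.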

C=CC(=O)N1CCN(c2nc(=O)n(-c3c(C)ccnc3C(C)C)c3nc(-c4c(O)cccc4F)c(F)cc23)C(C)C1 (centres undefined) + CN(C)c1ccc(Nc2c3ccc(NC(=O)CCN4CCCC4)cc3nc3cc(NC(=O)CCN4CCCC4)ccc23)cc1
pIC50 (second compound 0.0316 µM): < 5.00
pIC50 (second compound 0.1 µM): < 5.00
pIC50 (second compound 0.316 µM): < 5.00
pIC50 (second compound 1 µM): 5.85
pIC50 (second compound 3.16 µM): > 7.50
pIC50 (second compound 10 µM): > 7.50
viability, T/C [1]: 105%
viability, T/C [2]: 90.8%
viability, T/C [3]: 114%
viability, T/C [4]: 113%
viability, T/C [5]: 98.4%
viability, T/C [6]: 65.2%
viability, T/C [7]: 115%
viability, T/C [8]: 100%
viability, T/C [9]: 99.1%
viability, T/C [10]: 107%
viability, T/C [11]: 91.8%
viability, T/C [12]: 70.8%
viability, T/C [13]: 81.5%
viability, T/C [14]: 69.9%
viability, T/C [15]: 73.2%
viability, T/C [16]: 91.2%
viability, T/C [17]: 82.9%
viability, T/C [18]: 51.4%
viability, T/C [19]: 57%
viability, T/C [20]: 44.1%
viability, T/C [21]: 52.3%
viability, T/C [22]: 81.2%
viability, T/C [23]: 30.2%
viability, T/C [24]: 22.5%
viability, T/C [25]: 32.1%
viability, T/C [26]: 22%
viability, T/C [27]: 29.2%
viability, T/C [28]: 51.6%
viability, T/C [29]: 42.4%
viability, T/C [30]: 21.1%
viability, T/C [31]: 13.5%
viability, T/C [32]: 15.1%
viability, T/C [33]: 8.38%
viability, T/C [34]: 8.02%
viability, T/C [35]: 6.86%
viability, T/C [36]: 23.1%

Cc1cccc(N(C)C(=O)C2C(O)CCN2c2nc(C)cc(C(F)(F)F)c2C#N)c1 (centres undefined) + CN(C)c1ccc(Nc2c3ccc(NC(=O)CCN4CCCC4)cc3nc3cc(NC(=O)CCN4CCCC4)ccc23)cc1
pIC50 (second compound 0.0316 µM): < 5.00
pIC50 (second compound 0.1 µM): < 5.00
pIC50 (second compound 0.316 µM): < 5.00
pIC50 (second compound 1 µM): 6.26
pIC50 (second compound 3.16 µM): > 7.50
pIC50 (second compound 10 µM): > 7.50
viability, T/C [1]: 101%
viability, T/C [2]: 107%
viability, T/C [3]: 93.1%
viability, T/C [4]: 91.9%
viability, T/C [5]: 85.5%
viability, T/C [6]: 78.1%
viability, T/C [7]: 107%
viability, T/C [8]: 99.2%
viability, T/C [9]: 116%
viability, T/C [10]: 84.8%
viability, T/C [11]: 75.9%
viability, T/C [12]: 83.9%
viability, T/C [13]: 103%
viability, T/C [14]: 93.3%
viability, T/C [15]: 79.9%
viability, T/C [16]: 62.9%
viability, T/C [17]: 79.8%
viability, T/C [18]: 46.5%
viability, T/C [19]: 68.3%
viability, T/C [20]: 51.1%
viability, T/C [21]: 57.4%
viability, T/C [22]: 45.1%
viability, T/C [23]: 42.6%
viability, T/C [24]: 30%
viability, T/C [25]: 29.9%
viability, T/C [26]: 46.2%
viability, T/C [27]: 21.3%
viability, T/C [28]: 25.1%
viability, T/C [29]: 17.1%
viability, T/C [30]: 9.2%
viability, T/C [31]: 7.38%
viability, T/C [32]: 11.6%
viability, T/C [33]: 10.1%
viability, T/C [34]: 3.67%
viability, T/C [35]: 3.05%
viability, T/C [36]: 1.88%
